Reference: EP4644396A1 (Visionpharma (Nantong) Co., Ltd, priority 2022, dated 2024)

Molecular target: T1, human TLR7 (Homo sapiens, UniProt Q9NYK1)
T1 sequence (Q9NYK1 27-1049): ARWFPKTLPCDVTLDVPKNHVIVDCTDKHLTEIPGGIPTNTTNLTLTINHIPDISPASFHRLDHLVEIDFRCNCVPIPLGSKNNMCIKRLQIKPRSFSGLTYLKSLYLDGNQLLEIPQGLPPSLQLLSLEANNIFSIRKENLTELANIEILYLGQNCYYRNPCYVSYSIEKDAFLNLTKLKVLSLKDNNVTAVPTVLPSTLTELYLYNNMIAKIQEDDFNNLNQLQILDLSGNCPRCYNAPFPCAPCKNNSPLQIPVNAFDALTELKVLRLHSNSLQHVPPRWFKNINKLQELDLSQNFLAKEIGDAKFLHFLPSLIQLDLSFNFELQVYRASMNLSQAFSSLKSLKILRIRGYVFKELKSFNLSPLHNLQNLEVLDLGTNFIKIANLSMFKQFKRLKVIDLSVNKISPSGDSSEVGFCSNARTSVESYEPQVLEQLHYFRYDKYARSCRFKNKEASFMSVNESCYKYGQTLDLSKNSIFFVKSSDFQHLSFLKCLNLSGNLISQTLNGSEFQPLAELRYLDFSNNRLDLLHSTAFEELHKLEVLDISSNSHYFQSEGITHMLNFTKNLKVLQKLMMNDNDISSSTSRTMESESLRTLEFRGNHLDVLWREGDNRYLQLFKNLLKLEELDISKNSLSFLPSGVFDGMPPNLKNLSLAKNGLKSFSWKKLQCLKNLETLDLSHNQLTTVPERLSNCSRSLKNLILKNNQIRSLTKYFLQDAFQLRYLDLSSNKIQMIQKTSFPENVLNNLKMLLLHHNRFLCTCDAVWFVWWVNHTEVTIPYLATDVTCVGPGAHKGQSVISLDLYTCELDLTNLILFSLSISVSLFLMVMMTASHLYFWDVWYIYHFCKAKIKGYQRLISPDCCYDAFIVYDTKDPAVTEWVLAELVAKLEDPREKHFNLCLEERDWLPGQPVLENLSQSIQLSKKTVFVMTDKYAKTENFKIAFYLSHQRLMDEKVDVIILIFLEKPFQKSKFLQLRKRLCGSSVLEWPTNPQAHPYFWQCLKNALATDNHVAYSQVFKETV
Test: HEK-Blue hTLR7 SEAP reporter gene inhibition assay
Type: cell-based
Settings: HEK-Blue hTLR7 IC50 (µM)
Description: (§1) HEK-Blue cells with stable expression of human TLR7 or TLR8 were used in the evaluation of inhibitory activity of compounds in the present invention against TLR7 or TLR8, by using its ability to induce the SEAP reporting gene under the control of the fusion of IFN-β minimum promoters into five NF-κB and ap-1 binding sites, as follows: hTLR7 HEK-Blue cells (Invivogen, 80, 000 cells per well) or hTLR8 HEK-Blue cells (60, 000 cells per well) were added to a 96-well cell culture plate. A solution of the testing compounds were added to each well, with the final concentration of tested compounds in the medium ranged from 0.001 to 36 µM and the culture was incubated for 15 minutes. M5049 was used as positive controls in the testing.
(§2) Then a TLR7 ligand (Gardiquimod, purchased from MedChemExpress, with final concentration of ligand in cell culture medium kept at 10 µM) or a TLR8 ligand (purchased from MedChemExpress with final concentration in cell culture media at 10 µM) and the culture was incubated for 20 hours. According to the manufacturer's instructions, a HEK-Blue reagent Quanti-blue (Invivogen) was used to detect the SEAP levels in cell cultures. The half […] concentration or IC50 was calculated by using GraphPad Prism. […] Table 1: Activities of examples in this invention to hTLR7/8 in HEK-Blue Cells

Compound | IC50
C[C@@H]1CN(c2ccc(C#N)n3ncc(F)c23)Cc2c3c(nn21)CCN(Cc1cn[nH]c1)C3 [Example I-54, (R)-4-(2-((1H-Pyrazole-4-yl)methyl) -7-methyl-1,3,4,7,8,10-hexahydropyridine[4 ', 3 ': 3, 4]pyrazole [1,5-a]pyrazine-9 (2H) -yl) -3-fluoropyrazole [1,5-a] pyridine-7-nitrile] | < 0.05 µM
C[C@@H]1CN(c2ccc(C#N)n3ncc(F)c23)Cc2c3c(nn21)CCN(CC(F)F)C3 [Example I-56, (R)-4-(2-(2,2-difluoroethyl) -7-methyl-1,3,4,7,8, 10-hexahydropyridine [4 ', 3 ': 3, 4]pyrazole [1,5-a]pyrazine-9 (2H) -yl) -3-fluoropyrazole [1,5-a] pyridine-7-nitrile] | > 0.05 µM
C[C@@H]1CN(c2ccc(C#N)n3ncc(F)c23)Cc2c3c(nn21)CCN(Cc1ccn[nH]1)C3 [Example I-62] | > 0.05 µM
C[C@@H]1CN(c2ccc(C#N)n3ncc(F)c23)Cc2c3c(nn21)CN(CC(=O)N1CC2(COC2)C1)[C@@H](C)C3 [Example I-112, 4-((4R, 9S) -4,9-dimethyl-8-(2-oxydioxy-2-(2-oxytrioxy-6-nitrous [3.3]helium-6-ethyl)ethyl) -3,4,7,8,9, 10-hydropyridine [3 ', 4 ': 3, 4]pyrazole [1,5-a]pyrazine-2 (1 H) - yl) -3-fluoropyrazole [1,5-a] pyridine-7-nitrile] | > 0.05 µM
C[C@@H]1CN(c2ccc(C#N)n3ncc(F)c23)Cc2c3c(nn21)CN(CC(=O)N1CCNCC1)[C@@H](C)C3 [Example I-113] | < 0.05 µM

Same assay, conditions: hTLR7 HEK-Blue cells, TLR7 ligand Gardiquimod 10 µM, 20 hours, SEAP by Quanti-blue; class symbols; read-out: HEK-Blue hTLR7 IC50

IC50 | Compound
> 0.05 µM | C[C@@H]1CN(c2ccc(C#N)n3ncc(F)c23)Cc2c3c(nn21)CCC(N)C3 (stereo partly drawn) [Example I-9, 4-((4R)-9-amino-4-methyl-3,4,7,8,9,10-hexahydropyrazino[1,2-b]indazol-2(1H)-yl)-3-fluoropyrazolo[1,5-a]pyridine-7-carbonitrile]
> 0.05 µM | CC(C)N1CCc2c(nn3c2CN(c2ccc(C#N)n4ncc(F)c24)C[C@H]3C)C1 [Example I-23, (R)-3-Fluoro-4-(8-isopropyl-4-methyl-3,4,7,8,9,10-hexahydropyrido[3',4':3,4]pyrazolo[1,5-a]pyrazin-2(1H)-yl)pyrazolo[1,5-a]pyridine-7-carbonitrile]
< 0.05 µM | CCN1CCc2nn3c(c2C1)CN(c1ccc(C#N)n2ncc(F)c12)C[C@H]3C [Example I-25, (R)-4-(2-ethyl-7-methyl-1,3,4,7,8,10-hexahydropyrido[4',3':3,4]pyrazolo[1,5-a]pyrazin-9(2H)-yl)-3-fluoropyrazolo[1,5-a]pyridine-7-carbonitrile]
> 0.05 µM | C[C@@H]1CN(c2ccc(C#N)n3ncc(F)c23)Cc2c3c(nn21)CCN(C1CCC1)C3 [Example I-49, (R)-4-(2-cyclobutyl-7-methyl-1,3,4,7,8,10-hexahydropyrido[4',3':3,4]pyrazolo[1,5-a]pyrazin-9(2H)-yl)-3-fluoropyrazolo[1,5-a]pyridine-7-carbonitrile]
< 0.05 µM | CC(C)N1CCc2nn3c(c2C1)CN(c1ccc(C#N)n2ncc(F)c12)C[C@H]3C [Example I-53, (R)-3-Fluoro-4-(2-isopropyl-7-methyl-1,3,4,7,8,10-hexahydropyrido[4',3':3,4]pyrazolo[1,5-a]pyrazin-9(2H)-yl)pyrazolo[1,5-a]pyridine-7-carbonitrile]
> 0.05 µM | C[C@@H]1CN(c2ccc(C#N)n3ncc(F)c23)Cc2c3c(nn21)CCC(C)(N)C3 (stereo partly drawn) [Example I-80, 4-((4R)-9-Amino-4,9-dimethyl-3,4,7,8,9,10-hexahydropyrazino[1,2-b]indazol-2(1H)-yl)-3-fluoropyrazolo[1,5-a]pyridine-7-carbonitrile]
< 0.05 µM | C[C@@H]1CN(c2ccc(C#N)n3ncc(F)c23)Cc2c3c(nn21)CN[C@H](CC#N)C3 [Example I-86, 4-((4R,9S)-9-(cyanomethyl)-4-methyl-3,4,7,8,9,10-hexahydropyrido[3',4':3,4]pyrazolo[1,5-a]pyrazin-2(1H)-yl)-3-fluoropyrazolo[1,5-a]pyridine-7-carbonitrile]

More lines, now with the values behind:

Compound | IC50
3-((4R,9S)-2-(7-cyano-3-fluoropyrazolo[1,5-a]pyridin-4-yl)-4,9-dimethyl-1,2,3,4,9,10-hexahydropyrido[3',4':3,4]pyrazolo[1,5-a]pyrazin-8(7H)-yl)cyclobutane-1-carboxamide [Example I-164] | < 0.05 µM
C[C@@H]1CN(c2ccc(C#N)n3ncc(F)c23)Cc2c3c(nn21)CCN(Cc1cnn(C)c1)C3 [Example I-67, (R)-3-Fluoro-4-(7-methyl-2-((1-methyl-1H-pyrazol-4-yl)methyl)-1,3,4,7,8,10-hexahydropyrido[4',3':3,4]pyrazolo[1,5-a]pyrazin-9(2H)-yl)pyrazolo[1,5-a]pyridine-7-carbonitrile] | > 0.05 µM
CNC(=O)CN1Cc2nn3c(c2C[C@@H]1C)CN(c1ccc(C#N)n2ncc(F)c12)C[C@H]3C [Example I-101, 2-((4R,9S)-2-(7-cyanide-3-fluoropyridox and [1,5-a]pyridox-4-base)-4,9-dimethyl-1,2,3,4,9, 10-hydropyridox [3 ', 4 ': 3, 4]pyrazolo [1,5-a]pyrazine-8 (7 H) -yl)-N-methyl acetamide] | > 0.05 µM
C[C@@H]1CN(c2ccc(C#N)n3ncc(F)c23)Cc2c3c(nn21)CN(CC(=O)N(C)C)[C@@H](C)C3 [Example I-102, 2-((4R,9S)-2-(7-cyano-3-fluoropyrazolo[1,5-a]pyridin-4-yl)-4,9-dimethyl-1,2,3,4,9,10-hexahydropyrido[3',4':3,4]pyrazolo[1,5-a]pyrazin-8(7H)-yl)-N,N-dimethylacetamide] | < 0.05 µM
C[C@@H]1CN(c2ccc(C#N)n3ncc(F)c23)Cc2c3c(nn21)CN(Cc1ncco1)[C@@H](C)C3 [Example I-133, 4-((4R,9S)-4,9-dimethyl-8-(oxazol-2-ylmethyl)-3,4,7,8,9,10-hexahydropyrido[3',4':3,4]pyrazolo[1,5-a]pyrazin-2(1H)-yl)-3-fluoropyrazolo[1,5-a]pyridine-7-carbonitrile] | > 0.05 µM

Molecular target: T2, human TLR8 (Homo sapiens, UniProt Q9NR97)
T2 construct: expressed in transfected cells
T2 sequence (Q9NR97 27-1041): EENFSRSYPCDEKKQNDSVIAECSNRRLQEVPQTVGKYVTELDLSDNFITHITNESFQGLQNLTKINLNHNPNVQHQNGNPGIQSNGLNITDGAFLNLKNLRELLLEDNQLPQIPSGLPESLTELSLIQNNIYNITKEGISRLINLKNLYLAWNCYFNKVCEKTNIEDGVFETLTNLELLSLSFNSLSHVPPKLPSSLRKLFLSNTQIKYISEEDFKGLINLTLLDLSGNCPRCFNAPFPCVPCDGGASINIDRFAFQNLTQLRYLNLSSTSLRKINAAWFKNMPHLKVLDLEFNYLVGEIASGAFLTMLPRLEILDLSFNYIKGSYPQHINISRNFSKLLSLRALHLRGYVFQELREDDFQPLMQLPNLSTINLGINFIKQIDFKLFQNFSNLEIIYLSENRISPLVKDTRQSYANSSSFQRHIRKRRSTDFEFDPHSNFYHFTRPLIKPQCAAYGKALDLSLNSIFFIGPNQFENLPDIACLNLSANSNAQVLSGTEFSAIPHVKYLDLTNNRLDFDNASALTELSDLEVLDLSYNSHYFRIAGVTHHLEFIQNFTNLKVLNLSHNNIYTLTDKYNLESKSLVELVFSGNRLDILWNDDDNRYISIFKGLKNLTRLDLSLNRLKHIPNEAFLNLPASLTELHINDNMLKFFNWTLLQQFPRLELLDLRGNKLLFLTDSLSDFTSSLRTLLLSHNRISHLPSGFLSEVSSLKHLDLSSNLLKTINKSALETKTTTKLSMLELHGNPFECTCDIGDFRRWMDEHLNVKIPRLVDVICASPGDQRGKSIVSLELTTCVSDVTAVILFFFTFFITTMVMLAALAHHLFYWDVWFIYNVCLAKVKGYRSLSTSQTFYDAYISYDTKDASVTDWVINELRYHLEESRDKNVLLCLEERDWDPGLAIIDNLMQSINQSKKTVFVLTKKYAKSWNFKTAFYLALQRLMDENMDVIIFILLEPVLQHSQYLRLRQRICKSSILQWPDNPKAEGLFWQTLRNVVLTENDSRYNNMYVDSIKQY
Test: HEK-Blue hTLR8 SEAP reporter gene inhibition assay
Type: cell-based
Settings: hTLR8 HEK-Blue cells, TLR8 ligand 10 µM, 20 hours, SEAP by Quanti-blue; class symbols; read-out: HEK-Blue hTLR8 IC50
Description: as §1, §2

Compound | IC50
3-((4R,9S)-2-(7-cyano-3-fluoropyrazolo[1,5-a]pyridin-4-yl)-4,9-dimethyl-1,2,3,4,9,10-hexahydropyrido[3',4':3,4]pyrazolo[1,5-a]pyrazin-8(7H)-yl)cyclobutane-1-carboxamide [Example I-164] | > 100 nM
